One data set deals with CDA (Homo sapiens (Human), UniProt P32320). The conditions noted are these: deamination by CDA; Chabot et al. 1983, Bouffard et al. 1993; cited from earlier work.
A further data set concerns the target CDA from human liver (Homo sapiens (Human), UniProt P32320). The conditions noted are these: Wentworth and Wolfenden 1975; cited from earlier work.
The test system of data set [1] is A2780 human ovarian cancer xenograft. Briefly: In vivo efficacy study in A2780 human ovarian cancer xenograft model. Set-up: species or system female nude mice. Particulars: qdx5 for two weeks. As to the method: Animals were dosed daily from Monday to Friday for two weeks.
Female nude mice (NU/NU, strain code 088, 6 weeks old, Charles River Laboratory) were implanted subcutaneously with 5×10^6 A2780 cancer cells per mouse. On day 13 when the tumors were approximately 150 mm^3, treatment started as described in Table 9.
Tumor volume and regressions were followed over time. Tumor volume was calculated by (length×width^2)/2. Note that a complete regression was defined as no measurable tumor for at least 3 consecutive measurements; while a partial regression was defined as tumor shrinkage to equal or less than 50% of original tumor volume for 3 consecutive measurements. Tumor growth delay (TGD) was defined as the median number of days for the control and treatment groups to grow to 342.14 mm^3. The average tumor volume on the first day of treatment (day 13) is 171.07 mm^3.
(In general: A xenograft is tissue or cells of one species grown in another, often human tumour cells in immunodeficient mice.)

Another data set has as its target cytidine deaminase (CDA) (Homo sapiens (Human), UniProt P32320). The data set can be described thus: Effect of ER-876437 on the half-life of gemcitabine in the presence of CDA in Tris-HCl buffer at 37° C. It is filed as biochemical. Set-up: half-life: dose or concentration left out as unconfirmed. Particulars: for half-life: cytidine deaminase (CDA) in Tris-HCl buffer, read-out: Estimated T1/2 of gemcitabine; for reduction in gemcitabine concentration: gemcitabine alone, absence of CDA, Tris-HCl buffer at 37° C., 10 hours. On the procedure: This Example employed a Phenomenex Luna C18(2) HPLC column (100 Å 4.6×250 mm 5 μm). The solvent delivery system employed an HPLC quaternary pump, low pressure mixing. An autosampler having a variable loop, 0.1 to 100 μL range and temperature controlled thermostat was used. The UV detector can employ a dual wavelength detector, a diode array detector, a variable wavelength detector or equivalent, and can be recorded using chromatographic software (e.g., Waters Empower 2 Build 2154, Agilent ChemStation software version A.09.03 or higher for HPLC or equivalent). The analytical balance employed was capable of weighing ±0.1 mg. Degassed HPLC grade water and degassed HPLC grade acetonitrile were used as solvents for the mobile phases.
Gemcitabine Standard Control: 0.2 mM gemcitabine control was prepared by weighing […] of gemcitabine in a 10 mL volumetric flask. […] Solution was labeled as gemcitabine stock solution.

Where two headings read alike, the source gives them in different places.

Sequence of cytidine deaminase (CDA) (P32320 whole entry): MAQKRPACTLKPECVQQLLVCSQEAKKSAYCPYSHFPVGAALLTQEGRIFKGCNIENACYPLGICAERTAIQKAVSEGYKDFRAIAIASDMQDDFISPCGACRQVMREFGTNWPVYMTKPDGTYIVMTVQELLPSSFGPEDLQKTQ
Sequence of CDA (P32320 whole entry): as above
Sequence of CDA from human liver (P32320 whole entry): as above

Take `Nc1ncn([C@@H]2O[C@H](CO)[C@@H](O)[C@H]2O)c(=O)n1` [5-azacytidine, 4-Amino-1-(β-D-ribofuranosyl)-1,3,5-triazin-2(1H)-one]: the Michaelis constant (Km) was 216 ± 51 µM on CDA and 58 µM on CDA from human liver.
For `Nc1cnn([C@@H]2O[C@H](CO)[C@@H](O)[C@H]2O)c(=O)n1` [6-azacytidine], the Michaelis constant (Km) on CDA from human liver was 4200 µM.
In the case of `Nc1ccn([C@H]2C[C@H](O)[C@@H](CO)O2)c(=O)n1` [deoxycytidine], the Km on CDA was 19 ± 4 µM.
As for `Nc1ccn([C@@H]2O[C@H](CO)[C@@H](O)C2(F)F)c(=O)n1` [gemcitabine, 2′-deoxy-2′,2′-difluorocytidine], the “regressions or tumor free survivors at day 41” value in data set [1] (gemcitabine 1 mg/kg PO alone or ER-876437 10 mg/kg PO alone) was “no regressions or tumor free survivors”. For the same molecule, the “effect on tumor growth (FIG. 3)” value in data set [1] (gemcitabine 1 mg/kg PO and/or ER-876437 10 mg/kg PO (30 minutes prior)) is listed as “limited efficacy”. The “TGD (tumor growth delay)” value in data set [1] (gemcitabine 1 mg/kg PO and/or ER-876437 10 mg/kg PO (30 minutes prior), delay vs vehicle to reach 342.14 mm^3) is 2 days. Further, at CDA, the Km is 95.7 ± 8.4 µM. The “Estimated T1/2 of gemcitabine” value at cytidine deaminase (CDA) (Gemcitabine with CDA in Tris-HCl buffer at 37° C.) was less than 35 min. Also, the half-life at cytidine deaminase (CDA) (pH 7.4, Gemcitabine with CDA and ER-876437 in Tris-HCl buffer at 37° C.) is more than 780 min; at cytidine deaminase (CDA) (pH 7.4, Gemcitabine with CDA in Tris-HCl buffer at 37° C.), less than 35 min. Moreover, the figures for the “reduction in gemcitabine concentration” value at cytidine deaminase (CDA) and at cytidine deaminase (CDA) (listed as Gemcitabine) were “no reduction” and “did not show any degradation”, respectively. Further, the concentration of gemcitabine at cytidine deaminase (CDA) (presence of CDA, within 1 hour) was approximately 0 % control.

One may read the Km as the substrate concentration at which the rate is half of its maximum.
